In patent US8158586B2, “Inhibitors of protein kinases and uses thereof” (priority 2005, dated 2012):
Several values for one entry are separate records, joined by “and”; a condition that tells them apart may be missing. Equal values may be shown once. Marks after values point to notes of the source that are not given here. Positions of bridges follow the written chain, without caps; N, C: chain ends. Non-standard residues stand in square brackets, D forms with d. Residues, ends and D or L forms follow the SMILES beside them. Chains are numbered I, II in the order given. *: point of attachment. PNA(A) = NCCN(CC(=O)*)C(=O)Cn1cnc2c(N)ncnc21; Adenin9ylacetyl = Nc1ncnc2c1ncn2CC(=O)*; N(CH2CH2NHAc)Gly = CC(=O)NCCNCC(=O)O

How the values were obtained:
Akt/PKB = Akt/PKB (Homo sapiens, UniProt P31749); experiment: Luminescence Kinase Glo assay, Akt/PKB; format: biochemical; settings: 150000.0
Sequence of Akt/PKB (P31749 whole entry): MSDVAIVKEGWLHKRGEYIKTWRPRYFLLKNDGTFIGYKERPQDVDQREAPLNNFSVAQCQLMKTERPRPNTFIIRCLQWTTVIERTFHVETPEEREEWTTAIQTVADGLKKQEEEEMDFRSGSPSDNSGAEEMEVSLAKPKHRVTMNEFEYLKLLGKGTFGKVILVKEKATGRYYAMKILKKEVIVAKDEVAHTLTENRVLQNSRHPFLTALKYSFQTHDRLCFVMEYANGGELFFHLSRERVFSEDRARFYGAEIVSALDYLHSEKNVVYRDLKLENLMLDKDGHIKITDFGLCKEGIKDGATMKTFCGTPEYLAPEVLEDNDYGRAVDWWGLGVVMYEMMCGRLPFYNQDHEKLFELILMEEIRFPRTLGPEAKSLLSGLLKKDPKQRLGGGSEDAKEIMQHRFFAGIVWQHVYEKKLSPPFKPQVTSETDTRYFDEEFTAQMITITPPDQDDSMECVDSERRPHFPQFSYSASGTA
Protocol: The ability of the PKI compounds to inhibit PKA, CDK2, Akt/PKB, MAPKp38 and CK2a2 protein kinases was assessed using the Luminescence Kinase Glo® Kit (Promega V6711) according to the manufacturer's instructions. In brief the protocol was as follows:
All kinases were prepared in their respective 1× buffers. 20 μL of […] reaction buffer was added to each well. 10 μL of PKI compound and 10 μL of the test kinase solution were added followed by 10 μL of the Reaction Solution (containing activators, ATP and substrate). The reactions were incubated at 30° C. for 30 min and then 50 μL of Kinase-Glo® was added. Luminescence was measured after 10-15 min on a Galaxy reader.

[1] = system: MRP-1 expression in LS180 colon cancer cells; experiment: MRP-1 expression in LS180 colon cancer cells, flow cytometry; format: cell-based; settings: LS180 control cell population exposed to doxorubicin for 72 h
Protocol: (§1) The protocol used for fixing the cells for flow cytometry is as follows. A minimum of 1.0×10^6 cells was used in each instance. Cells were trypsinized and spun down at 1,000/5 min at 4° C. All the medium was removed and the cells resuspended in 500 μl of 1×PBS, pH 7.1. The cell suspension was added into 5 mls of 1% paraformaldehyde/PBS on ice and fixed for 15 min on ice. Cells were then centrifuged at 1,000/5 min and resuspended in 10 mls of 1×PBS. Cells were centrifuged again at 1,000/5 min and resuspended in 2 mls of 70% ETOH and kept at −20° C. until needed (up to 1 week). At which time, 2 mls of 1×PBS containing 1% BSA/0.02% NaN3 was added to each tube and the cells were left on ice for 5 min to give the cells time to rehydrate. Cells were then centrifuged at 1,000/5 min and the ETOH/PBS mix removed. […]
(§2) In view of the key role of the Pgp170 and MRP-1 proteins in MDR, the effect of the PKI compounds on expression of these proteins in LS180 colon cancer cells and H-661 NSCLC cells was investigated. […] The number of cells individually analysed amounted to approximately 50,000 with a statistical error of about 0.08%.
(§3) The increase in the expression of P-gp and MRP-1 was assessed by comparing the % of cells expressing the protein in question in the presence and absence of doxorubicin (i.e. the ratio A/B in the Tables).

[2] = system: MRP-1 expression in H-661 NSCLC cells; experiment: MRP-1 expression in H-661 NSCLC cells, flow cytometry; format: cell-based; settings: H-661 control cell population exposed to doxorubicin for 72 h
Protocol: as §1, §2, §3

LS180 colon cancer cells = experiment: Rhodamine influx and efflux in LS180 colon cancer cells; format: cell-based; settings: doxorubicin exposed controls
Protocol: (§4) The amount of rhodamine influx and efflux following treatment of LS180 colon cancer cells and H-661 NSCLC cells with the PKI compounds was also investigated. The measurement of rhodamine efflux and influx is a common procedure that provides a quantitative estimation of the level of multidrug resistance due to typical MDR and non-P-gp MDR. Both exogenous treatment using 5 μg/mL of the PKI compounds provided at the same time as doxorubicin, and endogenous incorporation, in which a single dose of 5 mM was used with the standard pinocytic endocytosis protocol, were investigated.
(§5) The MDR-1 pump functions only as an efflux pump, however, it modulates the cell entry of rhodamine (that can diffuse through the membrane). Upon toxicant exposure, rhodamine accumulates in the cells. Ratios of rhodamine fluorescence in doxorubicin exposed versus untreated controls (CT) are lower if the pump is inhibited.

[3] = system: PKCα expression in LS180 colon cancer cells; experiment: Expression of PKCα in LS180 cells, flow cytometry; format: cell-based; settings: LS180 control cells exposed to doxorubicin for 72 h
Protocol: (§6) The effect of compounds 1 to 10 on doxorubicin-induced expression of PKCα in LS180 colon cancer cells and H-661 NSCLC cells was investigated. Cells were exposed to doxorubicin (50 ng/mL) for 3 days prior to exogenous treatment with the PKI compounds at a concentration of 5 μM. Results were acquired by flow cytometry after labelling of the cells with the PKC-alpha #sc 208 antibody.
as §1, with “removed. The cells were resuspended in 5 mls of 1×PBS and allowed to sit on ice for 5 min.” for “removed.”

[4] = system: Pgp expression in LS180 colon cancer cells; experiment: Pgp expression in LS180 colon cancer cells, flow cytometry; format: cell-based; settings: LS180 control cell population exposed to doxorubicin for 72 h
Protocol: as §1, §2, §3

H-661 NSCLC cells = experiment: Rhodamine influx and efflux in H-661 NSCLC cells; format: cell-based; settings: control cells exposed to doxorubicin
Protocol: as §4, §5

[5] = system: PKCα expression in H-661 NSCLC cells; experiment: Expression of PKCα in H-661 cells, flow cytometry; format: cell-based; settings: H-661 control cells exposed to doxorubicin for 72 h
Protocol: as §6
as §1, with “removed. The cells were resuspended in 5 mls of 1×PBS and allowed to sit on ice for 5 min.” for “removed.”

[6] = system: Pgp expression in H-661 NSCLC cells; experiment: Pgp expression in H-661 NSCLC cells, flow cytometry; format: cell-based; settings: H-661 control cell population exposed to doxorubicin for 72 h
Protocol: as §1, §2, §3

SMILES: CC[C@H](C)[C@H](NC(=O)[C@H](CSSC[C@H](NC(=O)CNC(=O)CN(CCNC(C)=O)C(=O)Cn1cnc2c(N)ncnc21)C(=O)N[C@@H](CCCCN)C(=O)NCC(=O)N[C@@H](CCCCN)C(=O)N[C@@H](Cc1ccccc1)C(=O)N[C@@H](CCCCN)C(=O)N[C@@H](CCCNC(=N)N)C(N)=O)NC(=O)[C@H](Cc1c[nH]cn1)NC(C)=O)C(=O)NCC(=O)N[C@@H](CCCNC(=N)N)C(=O)N[C@@H](Cc1ccccc1)C(=O)N[C@@H](CCCCN)C(N)=O [Compound 1] (I: Adenin9ylacetyl-[N(CH2CH2NHAc)Gly]GCKGKFKR-NH2 / II: Ac-HCIGRFK-NH2; disulfide I:3-II:2; N-terminus and C-terminus assumed)
- % Inhibition Akt/PKB (Akt/PKB): −31* %

SMILES: CC(=O)N[C@@H](CCCCN)C(=O)N[C@@H](Cc1ccccc1)C(=O)N[C@@H](CCCNC(=N)N)C(=O)N[C@@H](CCCNC(=N)N)C(=O)N[C@@H](CCCCNC(=O)CN(CCN)C(=O)Cn1cnc2c(N)ncnc21)C(=O)N[C@@H](CCCNC(=N)N)C(=O)NCC(=O)N[C@@H](CCCNC(=N)N)C(=O)N[C@@H](CCC(=O)O)C(=O)N[C@H](C(=O)N[C@@H](CC(=O)O)C(N)=O)C(C)C [Compound 5] (Ac-KFRRK(PNA(A))RGREVD-NH2)
- % Inhibition Akt/PKB (Akt/PKB): −6* %

SMILES: CC(=O)N[C@@H](CCCCN)C(=O)N[C@@H](Cc1ccccc1)C(=O)N[C@@H](CCCNC(=N)N)C(=O)N[C@@H](CCCNC(=N)N)C(=O)N[C@@H](CCCCNC(=O)CN(CCN)C(=O)Cn1cnc2c(N)ncnc21)C(=O)N[C@@H](CC(C)C)C(=O)N[C@@H](CCCNC(=N)N)C(=O)N[C@@H](CC(C)C)C(=O)N[C@@H](CCC(=O)O)C(=O)N[C@H](C(=O)N[C@@H](CC(=O)O)C(N)=O)C(C)C [Compound 6] (Ac-KFRRK(PNA(A))LRLEVD-NH2)
- % Inhibition Akt/PKB (Akt/PKB): −10* %

SMILES: CC(=O)N[C@@H](CCCCN)C(=O)N[C@@H](CC(C)C)C(=O)N[C@@H](CCCNC(=N)N)C(=O)N[C@@H](CCCNC(=N)N)C(=O)N[C@@H](C)C(=O)N[C@@H](CCCCNC(=O)CN(CCN)C(=O)Cn1cnc2c(N)ncnc21)C(=O)N[C@@H](CCCNC(=N)N)C(=O)N[C@@H](Cc1ccccc1)C(=O)N[C@@H](CC(C)C)C(=O)N[C@@H](CCC(=O)O)C(=O)N[C@H](C(=O)N[C@@H](CC(=O)O)C(N)=O)C(C)C [Compound 7] (Ac-KLRRAK(PNA(A))RFLEVD-NH2)
- % Inhibition Akt/PKB (Akt/PKB): −7* %

SMILES: CC(=O)N[C@@H](CCCCN)C(=O)N[C@@H](CC(C)C)C(=O)N[C@@H](CCCNC(=N)N)C(=O)N[C@@H](CCCNC(=N)N)C(=O)N[C@@H](C)C(=O)N[C@@H](CCCCNC(=O)CN(CCN)C(=O)Cn1cnc2c(N)ncnc21)C(=O)N[C@@H](CC(C)C)C(=O)NCC(=O)N[C@@H](CC(C)C)C(=O)NCC(=O)N[C@@H](CC(=O)O)C(=O)N[C@@H](CC(=O)O)C(N)=O [Compound 8] (Ac-KLRRAK(PNA(A))LGLGDD-NH2)
- % Inhibition Akt/PKB (Akt/PKB): 0%

SMILES: CC(=O)N[C@@H](CCCCN)C(=O)N[C@@H](CC(C)C)C(=O)N[C@@H](CCCCN)C(=O)N[C@@H](CCCCN)C(=O)N[C@@H](C)C(=O)N[C@@H](CCCCNC(=O)CN(CCN)C(=O)Cn1cnc2c(N)ncnc21)C(=O)N[C@@H](CC(C)C)C(=O)NCC(=O)N[C@@H](CC(C)C)C(N)=O [Compound 9] (Ac-KLKKAK(PNA(A))LGL-NH2; N-terminus and C-terminus assumed)
- % Inhibition Akt/PKB (Akt/PKB): 7%

SMILES: CC(=O)NCCN(CC(=O)NCC(=O)N[C@@H](CS)C(=O)N[C@@H](CCCCN)C(=O)NCC(=O)N[C@@H](CCCCN)C(=O)N[C@@H](Cc1ccccc1)C(=O)N[C@@H](CCCCN)C(=O)N[C@@H](CCCNC(=N)N)C(N)=O)C(=O)Cn1cnc2c(N)ncnc21 [Compound 10] (Adenin9ylacetyl-[N(CH2CH2NHAc)Gly]GCKGKFKR-NH2; N-terminus and C-terminus assumed)
- % Inhibition Akt/PKB (Akt/PKB): 21%

SMILES: COc1cccc2c1C(=O)c1c(O)c3c(c(O)c1C2=O)C[C@@](O)(C(=O)CO)C[C@@H]3O[C@H]1C[C@H](N)[C@H](O)[C@H](C)O1 [doxorubicin]
- increase in number of MRP-1 labelled cells, average [1]: 3.41 times
- increase in number of MRP-1 labelled cells, average [2]: 12.05 times
- rhodamine accumulation (LS180 colon cancer cells): 1.58 times and 1.43 times and 1.37 times
- increase in log fluorescence relative intensity (PKCα), average [3]: 1.99 times
- increase in number of P-gp labelled cells, average [4]: 2.38 times
- increase in rhodamine retention (H-661 NSCLC cells): ~2.00 times
- increase in log fluorescence relative intensity (PKCα), average [5]: 2.19 times
- increase in number of P-gp labelled cells, average [6]: 15.0 times
